We go through 2 molecules from US5843916A, “Cyclic amp analogues, individually and in pairs, to inhibit neoplastic cell growth” (priority 1994, dated 1998).

Assay [1] deals with breast (MCF-7) and colon (LS-174T) cancer cell lines. As to the kind of experiment: Growth inhibition of breast and colon cancer cells (Table 1). In kind it is cell-based, human. As to conditions: for inhibition at 50 µM: Homo sapiens. The essentials:
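MCF-7 and LS-174T cells seeded day −1, treated on day 0 and day 2; duplicate Coulter counts on days 3 and 4 after gentle trypsinization. Percent growth inhibition versus untreated controls from dose-response curves, averaged over ≥3 experiments.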

In assay [2] the test system is breast and colon cancer lines (MCF-7, T-47D, ZR-75-1, MCF-7ras, MDA-MB-231, BT-20, HBL-100, LS-174T, WiDr, HT-29). As to the kind of experiment: Growth inhibition of breast and colon cancer lines (FIG. 1). It counts as cell-based, human.
For assay [3], the system named is MCF-7ras breast cancer cell line. As to the kind of experiment: Synergistic growth inhibition by analogue combinations (Table 2). In kind it is cell-based, human. The conditions noted are these: footnote of Table 2. The method, then: (§1) All breast cancer cell lines were grown in IMEM supplemented with 10% fetal bovine serum, HEPES 20 mM, penicillin-streptomycin, and extra glutamine. Colon carcinoma cell lines were grown in EMEM supplemented with 10% FBS, EMEM, NEAA, HEPES 20 mM, extra glutamine, and penicillin-streptomycin. The cells were grown at 37° C. in humidified incubators in an atmosphere of 5% CO2.
(§2) For cell growth experiments, 2-3×10^5 cells/60 mm dish were seeded, and 24 hours later (Day 0), the medium was removed, and fresh medium and the additives were added then and every 48 hours thereafter. The compounds of the present invention were added using 100X concentrated stock solutions. At desired times, cell counts in duplicate were performed on a Coulter counter after harvesting the cells with gentle trypsinization.
Synergism quotient was defined as the net growth inhibitory effect of the analogue combination divided by the sum of the net analogue effects on growth inhibition. A quotient of >1 indicates a synergistic effect, while a quotient of <1 indicates an antagonistic effect.
Synergism of growth inhibition was determined by
treatment of cells with C-6 analogues and C-8 analogues alone
and in combination at Day 0 and Day 2 and counting the cell
^a Data are expressed as percentage growth inhibition in reference to
the growth of untreated control cells and represent average values and
ranges (in parentheses) of duplicate cell counts on three or more separat
experiments. The values for percentage growth inhibition of each analogue
^b The synergism quotient was defined as previously described.

Assay [4] has as its system MCF-7. Kind of assay: Cell cycle analysis by flow cytometry (Table 3). In kind it is cell-based, human. As to conditions: 10 μM; 3 days. As for the experimental part: DNA histograms were generated on FACS II by using the DNA intercalating dye propidium iodide as described by Braylan et al. in Cytometry 2: 337-343, 1982. The percentage of cells in each cycle phase was calculated by using a PDP-11/34 computer and software as described by Neckers et al., Mol. Cell. Biol. 6: 4244-4250, 1986.
Breast (MCF-7, MDA-MB-231) and colon (LS-174T) cancer cells in log
phase (untreated control) and 3 days after treatment with 8-C1-cAMP
(10 μM), N^6 -benzyl-cAMP (35 μM), and 8-Cl-adenosine (5
were analyzed for DNA content by flow cytometric analysis as described
below. Similar results were obtained with other breast and colon cancer
(Flow cytometry measures light scatter and fluorescence of single cells or particles in a stream.)

For another assay, the system named is DMBA-1 mammary carcinoma. As to the kind of experiment: Growth of transplantable mammary carcinoma, pellet (Table 5). It counts as in vivo, rat. The conditions noted are these: for Change in mean tumor volume (cm^3) / Change in mean tumor volume (%): pellet with 10 mg analogue, day 7; for Change in mean tumor volume (%): none = 100. As for the experimental part:
Based on the findings with the […] leukemia model, the efficacy of the 8-Cl-cAMP-Na+infusions were evaluated in advanced-stage human tumor xenograft models. Tumor fragments of approximately 14 mg were implanted subcutaneously in athymic CD-1 female mice and seven day intraperitoneal infusions of the cyclic nucleotide were initiated three weeks later when mean tumor weights had reached 300-400 mg. Tumor measurements were recorded on the initial day of treatment (staging day) and one day after treatment was completed (staging day +7), and were used to calculate changes in tumor weights.
DMBA-1, a variant of primary hormonedependent DMBA tumor,
hormoneindependent and transplantable.
8Cl-cAMP and DBcAMP were given as a 20mg pellet consisting of 10 mg of […]

The target of assay [5] is T1, Protein kinase type II (cAKII) (Bos taurus, UniProt P00515).
T1 construct: prepared from rabbit skeletal muscle and bovine heart; from tissue; host or cells: bovine heart
T1 sequence (P00515 2-401 limits assumed): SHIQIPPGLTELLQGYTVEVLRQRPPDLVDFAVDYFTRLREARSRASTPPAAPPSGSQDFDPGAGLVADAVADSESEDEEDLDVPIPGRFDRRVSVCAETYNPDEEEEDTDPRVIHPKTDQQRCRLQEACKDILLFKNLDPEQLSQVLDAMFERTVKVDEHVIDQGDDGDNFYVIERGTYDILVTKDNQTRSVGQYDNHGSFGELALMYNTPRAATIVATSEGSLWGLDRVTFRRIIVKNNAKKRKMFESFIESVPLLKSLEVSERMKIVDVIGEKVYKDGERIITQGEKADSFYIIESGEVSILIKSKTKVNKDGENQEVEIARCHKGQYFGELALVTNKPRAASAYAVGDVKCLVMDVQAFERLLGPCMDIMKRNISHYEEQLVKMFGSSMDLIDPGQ
Kind of assay: Protein kinase activation (Table 15). In kind it is biochemical, bovine (heart). The conditions noted are these: half-maximum activation; U. M.: unmeasurable. The method, then: ATP to Kemptide as described by Ogreid et al., Eur. J. Biochem. 150: 219-227 (1985).
Protein kinases types I (cAKI) and II (cAKII) were
prepared from rabbit skeletal muscle and bovine heart,
respectively, as described in D.o slashed.skeland et al. (J. Biol.
of the protein kinase in Ogreid et al. (Eur. J. Biochem.

In assay [6] the test system is HL-60 human leukemia cells. Kind of assay: Growth inhibition of HL-60 leukemia cells (Example 3, Table 16). As to conditions: for IC50: Homo sapiens. It counts as cell-based. The essentials:
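HL-60 cells were grown in suspension in RPMI 1640 with 10% heat-inactivated FBS, starting at 1 × 10^5 cells/dish. Cells were counted on a Coulter Counter after 3 or 6 days of exposure. IC50 values were read from dose-response data and averaged over two or more separate experiments.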

The test system of assay [7] is MCF-7. Kind of assay: Growth of MCF-7 cells (Tables 3, 11). It counts as cell-based. The conditions noted are these: Homo sapiens, MCF7, 72 h. The method, then:
as §1, §2

For the next assay, the system named is L1210 leukemia. Kind of assay: Life span of L1210-inoculated BDF1 mice (Table 7).
The subject of a further assay is neuroblastoma cells. The conditions noted are these: two contradicting studies; cited from earlier work.
For assay [8], the system named is spindle cell sarcoma with multiple metastasis. The conditions noted are these: cited from earlier work.
Assay [9] concerns mammary carcinomas induced by DMBA. The conditions noted are these: treatment of hosts; cited from earlier work.
The mark [10] stands for this setting: 72 h, 50 μM, day 3, average (range), read-out: % Growth Inhibition, Day 3.
Setting [11] is: 96 h, 50 μM, day 4, average (range), read-out: % Growth Inhibition, Day 4.
The mark [12] stands for this setting: Table 11, 8-Cl-cAMP 10 μM, 8-Cl-adenosine 5 μM, DBcAMP 500 μM, control 100.

“Also recorded” adds a separate entry of the source. Read-outs that look alike come from different tables or passages of the source.

Turning to `Nc1ncnc2c1nc(Cl)n2[C@@H]1O[C@@H]2COP(=O)(O)O[C@H]2[C@H]1O` [8-Cl-cAMP, 8-chloro-adenosine 3': 5'-monophosphate], the inhibition at 50 µM in assay [1] (setting [10]) was 67%; in assay [1] (setting [11]) it was 75%; in assay [1] (50 micromolar, read-out: growth inhibition), 40 to 75%. Besides, in assay [2] (densitometry text), the “growth inhibition of cancer lines” value was 45-70%. In addition, the “percentage growth inhibition of each analogue when added alone” value in [3] was found to be 20%. Moreover, in the assay with MCF-7 [4], the “% Cell Population in G1” value stood at 53%. Moreover, the “% Cell Population in G2M” value in the assay with MCF-7 [4] stood at 25%. In the assay on MCF-7 [4], the “% Cell Population in S” value came out at 22%. The “cell cycle phase distribution” value in the assay on MCF-7 [4] is given as “not appreciably different”. Moreover, the “Change in mean tumor volume (cm^3)” value with DMBA-1 mammary carcinoma was 1.60 cm^3. Further, in the assay on DMBA-1 mammary carcinoma, the “Change in mean tumor volume (%)” value is reported as 61%. In addition, in the assay with DMBA-1 mammary carcinoma (pellet, seven days), the “inhibition of tumor growth” value is given as 40-50%. Also, the “Activation Constant (Ka), cAKII” value in assay [5] was 1.0 × 10^-7. For the same molecule, in assay [6] (HL-60), the “growth inhibitory potency” value was “potent growth inhibitor of HL-60 cells”. Moreover, the IC50 is 5000 nM in [6] (HL-60, 72 h, read-out: Growth inhibition (IC50), Day 3) and 400 nM in assay [6] (HL-60, 144 h, read-out: Growth inhibition (IC50), Day 6). Further, in the assay with MCF-7 [7], testing at 10 µM gave an inhibition of 57%. The activity at 10 µM came out at 40% with MCF-7 [7] (10 μM, 3 days, control 100 (Table 3)) and 43% with MCF-7 [7] (setting [12]). In the assay with L1210 leukemia (104 mg/kg bolus, seven consecutive days), the “antitumor effect” value is given as “no antitumor effect”. Besides, in the assay on L1210 leukemia (constant infusion 104 mg/kg/day, five days), the “increase in mean life span” value stood at 37%.

Take `CCCC(=O)Nc1ncnc2c1ncn2[C@@H]1O[C@@H]2COP(=O)(O)O[C@H]2[C@H]1OC(=O)CCC` [DBcAMP, N^6, O^2' -dibutyryl-cAMP, reference compound]: the “growth inhibition” value in assay [1] (50 micromolar) is “no growth inhibition”. The inhibition at 50 µM in assay [1] (setting [10]) and in assay [1] (setting [11]) was 0% throughout. The inhibition at 1000 µM in assay [2] (Homo sapiens, 1 mM) stood at 15%. The “tumor response” value with DMBA-1 mammary carcinoma (Table 5) is recorded as “completely resistant”. In the assay on DMBA-1 mammary carcinoma, the “Change in mean tumor volume (cm^3)” value came out at 2.60 cm^3. In addition, in the assay with DMBA-1 mammary carcinoma, the “Change in mean tumor volume (%)” value is on record as 9%. For the same molecule, in the assay on MCF-7 [7], the inhibition at 500 µM was determined as 20%. The molecule also gave an activity at 500 µM with MCF-7 [7] (setting [12]) of 80%. Further, the “tumorigenicity” value with neuroblastoma cells is listed as “decreased; also recorded: unaltered”. Moreover, the “tumor size” value in assay [8] (3-6 mg/kg iv, five hours daily, days 1-9 and 47-56) was “The tumor size plateaued and even decreased during both infusion periods”. The “tumor histology” value in assay [8] (biopsied on days 2, 14, and 60) was “evidence of differentiation”. In addition, in [9], the “tumor biochemistry during growth arrest” value was “estrogen binding decreases whereas cAMP binding and cAMP-dependent protein kinase activity increase; also recorded: sharp reduction of the translated p21 protein”.

One may read the inhibition as the percentage by which the read-out fell short of the control. The IC50 is the concentration that gives 50% inhibition.
